Legend:
human DGKζ = human DGKζ (Homo sapiens (Human), UniProt Q13574); assay: DGKζ LIPGLO assay (extruded liposome substrate, ADP-Glo luminescence); assay type: biochemical; details: liposome (LIPGLO) assay; read-out: DGK zeta (liposome assay) IC50
human DGKα = human DGKα (Homo sapiens (Human), UniProt P23743); assay: DGKα ADPGLO assay (detergent/lipid micelle substrate); assay type: biochemical; details: ADPGLO assay; read-out: DGK alpha ADPGLO IC50
Experimental: DGK Alpha ADPGLO (Truncated) IC50 (uM)
The detergent/lipid micelle was prepared by combining 15 g phosphatidylserine (Avanti 840035P) and 1 g diacylglycerol (8008110) and dissolving into 150 mL chloroform in a 2 L round bottom flask. Chloroform was removed under high vacuum by rotary evaporation. […] The lipid/detergent solution was split into 5 mL aliquots and stored at −80° C.

whole blood (pERK) = assay: pERK Whole Blood; assay type: cell-based

Sequence of human DGKα (P23743 whole entry, looked up, the tested form may be a part): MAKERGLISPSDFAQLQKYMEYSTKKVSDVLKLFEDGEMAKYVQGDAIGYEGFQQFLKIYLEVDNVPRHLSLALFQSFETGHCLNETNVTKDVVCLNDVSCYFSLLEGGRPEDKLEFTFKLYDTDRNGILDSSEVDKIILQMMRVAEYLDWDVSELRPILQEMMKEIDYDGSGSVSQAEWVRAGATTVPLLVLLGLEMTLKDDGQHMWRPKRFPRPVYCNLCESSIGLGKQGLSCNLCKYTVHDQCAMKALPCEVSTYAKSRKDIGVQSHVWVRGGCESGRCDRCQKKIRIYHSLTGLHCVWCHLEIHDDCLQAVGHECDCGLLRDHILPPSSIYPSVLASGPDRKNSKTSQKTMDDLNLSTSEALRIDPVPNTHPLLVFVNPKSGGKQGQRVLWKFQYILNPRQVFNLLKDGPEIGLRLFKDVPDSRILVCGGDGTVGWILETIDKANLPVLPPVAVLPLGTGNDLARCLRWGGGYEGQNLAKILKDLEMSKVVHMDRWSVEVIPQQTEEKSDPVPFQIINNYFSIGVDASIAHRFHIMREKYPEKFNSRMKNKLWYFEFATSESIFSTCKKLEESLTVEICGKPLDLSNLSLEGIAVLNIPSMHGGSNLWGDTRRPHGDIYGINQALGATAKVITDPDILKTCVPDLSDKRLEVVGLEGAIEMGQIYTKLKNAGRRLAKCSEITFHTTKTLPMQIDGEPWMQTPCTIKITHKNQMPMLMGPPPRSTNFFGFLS
Sequence of human DGKζ (Q13574 other isoform, or with tags, fused parts or gaps): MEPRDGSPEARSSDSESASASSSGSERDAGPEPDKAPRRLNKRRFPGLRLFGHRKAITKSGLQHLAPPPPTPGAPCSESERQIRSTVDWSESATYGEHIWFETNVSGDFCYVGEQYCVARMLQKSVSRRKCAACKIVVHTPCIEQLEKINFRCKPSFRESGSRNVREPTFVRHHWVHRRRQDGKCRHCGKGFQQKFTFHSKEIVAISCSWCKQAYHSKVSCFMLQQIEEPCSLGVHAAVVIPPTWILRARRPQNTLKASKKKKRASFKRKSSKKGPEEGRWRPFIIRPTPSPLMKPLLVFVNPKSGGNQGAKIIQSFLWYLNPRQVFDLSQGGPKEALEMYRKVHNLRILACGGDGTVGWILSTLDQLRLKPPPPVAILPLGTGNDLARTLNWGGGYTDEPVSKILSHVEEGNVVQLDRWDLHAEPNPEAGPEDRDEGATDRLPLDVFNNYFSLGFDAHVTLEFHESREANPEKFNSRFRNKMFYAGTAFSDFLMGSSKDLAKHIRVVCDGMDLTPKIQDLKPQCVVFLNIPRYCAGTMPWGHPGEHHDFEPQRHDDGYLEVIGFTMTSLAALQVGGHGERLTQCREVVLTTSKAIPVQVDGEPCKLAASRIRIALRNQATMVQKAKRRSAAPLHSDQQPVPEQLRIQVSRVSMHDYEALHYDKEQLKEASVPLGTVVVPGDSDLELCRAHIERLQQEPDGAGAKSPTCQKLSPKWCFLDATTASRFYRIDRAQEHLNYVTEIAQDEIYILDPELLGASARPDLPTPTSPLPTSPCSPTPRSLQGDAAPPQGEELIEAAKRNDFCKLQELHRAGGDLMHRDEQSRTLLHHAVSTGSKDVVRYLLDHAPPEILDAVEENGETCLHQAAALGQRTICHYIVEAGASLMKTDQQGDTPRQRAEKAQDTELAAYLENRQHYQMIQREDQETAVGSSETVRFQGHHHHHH

Row | IC50 (human DGKζ) [µM] | IC50 (human DGKα) [µM] | EC50 (whole blood (pERK)) [µM] | SMILES
1 | 0.2 | 0.85 | 4.21 | CC[C@@H]1CN(c2nc(=O)n(C)c3ccc(C#N)nc23)[C@@H](C)CN1C(c1ccc(OC(C)C)cc1)C(C)C (stereo partly drawn) [Example 324, 4-((2S,5R)-5-ethyl-4-(1-(4-isopropoxyphenyl)-2-methylpropyl)-2-methylpiperazin-1-yl)-1-methyl-2-oxo-1,2-dihydropyrido[3,2-d]pyrimidine-6-carbonitrile]
2 | 0.4 | 0.36 | 10.9 | CC[C@H]1CN(C(C)c2ccc(C(F)(F)F)cc2)[C@H](CC)CN1c1nc(=O)n(C)c2ccc(C(F)F)nc12 (stereo partly drawn) [Example 439, 4-((2S,5R)-2,5-Diethyl-4-(1-(4-(trifluoromethyl)phenyl)ethyl)piperazin-1-yl)-6-(difluoromethyl)-1-methylpyrido[3,2-d]pyrimidin-2(1H)-one]
3 | 5.57 | 13.6 | 20 | CCC(N1C[C@H](C)N(c2nc(=O)n(C)c3ccc(C#N)nc23)C[C@H]1C)C12CC(C(F)(F)F)(C1)C2 (stereo partly drawn) [Example 447, 4-((2S,5R)-2,5-dimethyl-4-(1-(3-(trifluoromethyl)bicyclo[1.1.1]pentan-1-yl)propyl)piperazin-1-yl)-1-methyl-2-oxo-1,2-dihydropyrido[3,2-d]pyrimidine-6-carbonitrile]
4 | 0.44 | 18 | 0.93 | CC[C@@H]1CN(c2nc(=O)n(C)c3ccc(C#N)nc23)[C@@H](C)CN1C(C)c1ccc(C(F)(F)F)c(C#N)c1 (single isomer, unassigned) [Example 356]
5 | 0.74 | 0.14 | 3.14 | CCC(c1ccc(C(F)(F)F)cc1)N1C[C@H](CC)N(c2nc(=O)[nH]c3ccc(C#N)nc23)C[C@H]1CC (stereo partly drawn) [Example 416, 4-((2S,5R)-2,5-diethyl-4-(1-(4-(trifluoromethyl)phenyl)propyl)piperazin-1-yl)-2-oxo-1,2-dihydropyrido[3,2-d]pyrimidine-6-carbonitrile]
6 | 0.021 | 0.016 | 4.41 | CC[C@@H]1CN(c2nc(=O)n(C)c3ccc(C#N)nc23)[C@@H](C)CN1C(c1nc(C2CC2)no1)C(C)C (stereo partly drawn) [Example 365, 4-((2S,5R)-4-(1-(3-cyclopropyl-1,2,4-oxadiazol-5-yl)-2-methylpropyl)-5-ethyl-2-methylpiperazin-1-yl)-1-methyl-2-oxo-1,2-dihydropyrido[3,2-d]pyrimidine-6-carbonitrile]
7 | 45 | 9.67 | 0.67 | CC[C@@H]1CN(c2nc(=O)n(C)c3ccc(C#N)nc23)[C@@H](CO)CN1C(C)c1ccc(C(F)(F)F)cc1 (single isomer, unassigned) [Example 412]
8 | 0.095 | 0.049 | 1.74 | CCC(c1ccc(OCC2(C)CC2)cc1)N1C[C@H](C)N(c2nc(=O)n(C)c3ccc(C#N)nc23)C[C@H]1CC (stereo partly drawn) [Example 345, 4-((2S,5R)-5-ethyl-2-methyl-4-(1-(4-((1-methylcyclopropyl)methoxy)phenyl)propyl)piperazin-1-yl)-1-methyl-2-oxo-1,2-dihydropyrido[3,2-d]pyrimidine-6-carbonitrile]
9 | 33.6 | 2.84 | 6.89 | CC(c1ccc(CN2CC3(COC3)C2)cc1)N1C[C@H](C)N(c2nc(=O)n(C)c3ccc(C#N)nc23)C[C@H]1C (stereo partly drawn) [Example 392, 4-((2S,5R)-4-(1-(4-((2-oxa-6-azaspiro[3.3]heptan-6-yl)methyl)phenyl)ethyl)-2,5-dimethylpiperazin-1-yl)-1-methyl-2-oxo-1,2-dihydropyrido[3,2-d]pyrimidine-6-carbonitrile]
10 | 5.14 | 13.4 | 20 | CCC(N1C[C@H](C)N(c2nc(=O)n(C)c3ccc(C#N)nc23)C[C@H]1C)C12CC(C(F)(F)F)(C1)C2 (single isomer, unassigned) [Example 448]
11 | 0.19 | 0.026 | 0.27 | CC[C@@H]1CN(c2nc(=O)n(C)c3ccc(C#N)nc23)[C@@H](C)CN1C(c1ccc(F)cc1)c1cccc(C(F)F)n1 (stereo partly drawn) [Example 315, 4-((2 S,5R)-4-((6-(difluoromethyl)pyridin-2-yl)(4-fluorophenyl)methyl)-5-ethyl-2-methylpiperazin-1-yl)-1-methyl-2-oxo-1,2-dihydropyrido[3,2-d]pyrimidine-6-carbonitrile]
12 | 0.057 | 0.32 | 2.07 | CCC(c1c(F)cc(OCC2CC2)cc1F)N1C[C@H](C)N(c2nc(=O)n(C)c3ccc(C#N)nc23)C[C@H]1CC (stereo partly drawn) [Example 327, 4-((2S,5R)-4-(1-(4-(cyclopropylmethoxy)-2,6-difluorophenyl)propyl)-5-ethyl-2-methylpiperazin-1-yl)-1-methyl-2-oxo-1,2-dihydropyrido[3,2-d]pyrimidine-6-carbonitrile]
13 | 0.12 | 0.18 | 3.36 | CCC1CN(c2nc(=O)n(C)c3ccc(C#N)nc23)[C@@H](C)CN1C(C)c1ccc(C(F)(F)F)c(CN2CCOCC2)c1 (single isomer, unassigned) [Example 350]
14 | 0.95 | 0.32 | 1.99 | CCC(c1ccc(OCc2nccs2)cc1)N1C[C@H](C)N(c2nc(=O)n(C)c3ccc(C#N)nc23)C[C@H]1CC (stereo partly drawn) [Example 347, 4-((2S,5R)-5-ethyl-2-methyl-4-(1-(4-(thiazol-2-ylmethoxy)phenyl)propyl)piperazin-1-yl)-1-methyl-2-oxo-1,2-dihydropyrido[3,2-d]pyrimidine-6-carbonitrile]
15 | 0.055 | 0.033 | 20 | [2H]C([2H])([2H])n1c(=O)nc(N2C[C@@H](CC)N(C(C)c3ccc(C(F)(F)F)cc3)C[C@@H]2C)c2nc(C#N)ccc21 (single isomer, unassigned) [Example 419]
16 | 2.23 | 2.97 | 20 | CCC(c1c(F)cc(OCC2CC2)cc1F)N1C[C@H](C)N(c2nc(=O)n(C)c3ccc(C#N)nc23)C[C@H]1CC (stereo partly drawn) [Example 328, 4-((2S,5R)-4-(1-(4-(cyclopropylmethoxy)-2,6-difluorophenyl)propyl)-5-ethyl-2-methylpiperazin-1-yl)-1-methyl-2-oxo-1,2-dihydropyrido[3,2-d]pyrimidine-6-carbonitrile]
17 | 0.004 | 0.025 | 0.05 | CC[C@@H]1CN(c2nc(=O)n(C)c3ccc(C#N)nc23)[C@@H](C)CN1C(c1ccc(OC)cc1)C(C)C (stereo partly drawn) [Example 314, 4-((2S,5R)-5-ethyl-4-(1-(4-methoxyphenyl)-2-methylpropyl)-2-methylpiperazin-1-yl)-1-methyl-2-oxo-1,2-dihydropyrido[3,2-d]pyrimidine-6-carbonitrile]
18 | 26.9 | 0.19 | 0.7 | CC[C@@H]1CN(c2nc(=O)n(C)c3ccc(C(F)F)nc23)[C@@H](C)CN1C(C)c1ccc(C(F)(F)F)cc1 (stereo partly drawn) [Example 441, 6-(difluoromethyl)-4-((2S,5R)-5-ethyl-2-methyl-4-(1-(4-(trifluoromethyl)phenyl)ethyl)piperazin-1-yl)-1-methylpyrido[3,2-d]pyrimidin-2(1H)-one]
19 | 0.74 | 5.29 | 1.56 | CC[C@@H]1CN(c2nc(=O)n(C)c3ccc(C#N)nc23)[C@@H](C)CN1C(C)c1ccc(C2CCOCC2)cc1 (stereo partly drawn) [Example 329, 4-((2 S,5R)-5-ethyl-2-methyl-4-(1-(4-(tetrahydro-2H-pyran-4-yl)phenyl)ethyl)piperazin-1-yl)-1-methyl-2-oxo-1,2-dihydropyrido[3,2-d]pyrimidine-6-carbonitrile]
20 | 6.33 | 0.74 | 0.073 | CCC(c1ccc(OCC2CN(C)C2)cc1)N1C[C@H](C)N(c2nc(=O)n(C)c3ccc(C#N)nc23)C[C@H]1CC (stereo partly drawn) [Example 343, 4-((2 S, 5R)-5-ethyl-2-methyl-4-(1-(4-((1-methylazetidin-3-yl)methoxy)phenyl)propyl)piperazin-1-yl)-1-methyl-2-oxo-1,2-dihydropyrido[3,2-d]pyrimidine-6-carbonitrile]
21 | 61.9 | 3.31 | 3.44 | CCC(c1ccc(C(F)(F)F)cc1)N1C[C@H](CC)N(c2nc(=O)[nH]c3ccc(C#N)nc23)C[C@H]1CC (stereo partly drawn) [Example 415, 4-((2S,5R)-2,5-diethyl-4-(1-(4-(trifluoromethyl)phenyl)propyl)piperazin-1-yl)-2-oxo-1,2-dihydropyrido[3,2-d]pyrimidine-6-carbonitrile]
22 | 1.31 | 0.91 | 20 | CCC(c1ccc(OCC2CCOCC2)cc1)N1C[C@H](C)N(c2nc(=O)n(C)c3ccc(C#N)nc23)C[C@H]1CC (stereo partly drawn) [Example 338, 4-((2S,5R)-5-ethyl-2-methyl-4-(1-(4-((tetrahydro-2H-pyran-4-yl)methoxy)phenyl)propyl)piperazin-1-yl)-1-methyl-2-oxo-1,2-dihydropyrido[3,2-d]pyrimidine-6-carbonitrile]
23 | 0.045 | 0.061 | 1.95 | CCC(c1ccc(OCc2nccs2)cc1)N1C[C@H](C)N(c2nc(=O)n(C)c3ccc(C#N)nc23)C[C@H]1CC (stereo partly drawn) [Example 348, 4-((2S,5R)-5-ethyl-2-methyl-4-(1-(4-(thiazol-2-ylmethoxy)phenyl)propyl)piperazin-1-yl)-1-methyl-2-oxo-1,2-dihydropyrido[3,2-d]pyrimidine-6-carbonitrile]
24 | 15.9 | 6.31 | 12.9 | CCC(c1ccc(OCCC2CC2)cc1)N1C[C@H](C)N(c2nc(=O)n(C)c3ccc(C#N)nc23)C[C@H]1CC (stereo partly drawn) [Example 340, 4-((2S,5R)-4-(1-(4-(2-cyclopropylethoxy)phenyl)propyl)-5-ethyl-2-methylpiperazin-1-yl)-1-methyl-2-oxo-1,2-dihydropyrido[3,2-d]pyrimidine-6-carbonitrile]

From patent US11584747B2, “Substituted pyridopyrimidinonyl compounds useful as T cell activators” (BRISTOL-MYERS SQUIBB COMPANY, priority 2019, dated 2023)
